Measured values from CN105732584A, “一种达比加群酯2-酮戊二酸盐晶型i及其制备方法和用途” (Tianjin Institute of Pharmaceutical Research Co Ltd, priority 2014, dated 2016).
Values after ≈ are worked out from the molar mass of the structure shown.

Columns and labels:
Type in all cases: physicochemical
[1] = Stability test (stress factors): change of appearance
[2] = Stability test (stress factors): content determination by HPLC
[3] = Solubility in water at 25℃; details: H2O
[4] = high temperature and high humidity
[5] = 7 days, high temperature and high humidity

change of content with time (in words) ([2]; sealed high temperature, and high temperature with high humidity) | Compound | change of colour/appearance (in words) [1, 4] | moisture absorption (in words) ([1]; high temperature and high humidity, concluded from colour change and caking) | change of colour/appearance (in words) ([1]; sealed, high temperature) | content remaining [2, 5] | stability (in words) [2, 4] | remaining at 168 h ([2]; high temperature and humidity storage, 7 days, high temperature and high humidity) | solubility [3]
– | CCCCCCOC(=O)NC(=N)c1ccc(NCc2nc3cc(C(=O)N(CCC(=O)OCC)c4ccccn4)ccc3n2C)cc1 [达比加群酯甲磺酸盐] | 颜色变化很明显且出现板结现象 | 吸潮严重 | 颜色随时间产生明显变化 | < 20% | 极不稳定 | < 20% | 1800 µg/mL (≈ 2870 µM)
含量随时间变化较小 | CCCCCCOC(=O)N=C(N)c1ccc(NCc2nc3cc(C(=O)N(CCC(=O)OCC)c4ccccn4)ccc3n2C)cc1.O=C(O)CCC(=O)C(=O)O [达比加群酯2-酮戊二酸盐晶型I, 3-[[[2-[[[4-[[[(己氧基)羰基]氨基]亚氨甲基]苯基]氨基]甲基]-1-甲基-1H-苯并咪唑-5-基]羰基](吡啶-2-基)氨基]丙酸乙酯2-酮戊二酸盐] | 颜色虽有变化但不大 | – | 颜色几乎无变化 | ~98% | – | – | –
